In patent US12558428B2, “Heterobifunctional compounds and their use in treating disease” (Halda Therapeutics OpCo, Inc., priority 2024, dated 2026):

Experiments:
Assay type in all cases: cell-based
[1] = test system: T-Rex 293 cells having increased expression of estrogen receptor alpha protein; assay: Cellular growth inhibition assay, T-Rex 293 cells, (+) doxycycline; details: T-REx-293, 72 h, Table 7-A; T-Rex 293 cells with doxycycline (increased ERα expression); 72 hours; CellTiter-Glo; read-out: (+) Dox GI50
Outline: (§1)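 Cells of an inducible ERα-expressing T-Rex 293 clone are seeded in charcoal-dextran FBS medium with or without 3 ng/mL doxycycline, then treated after 24 h with compound dilutions (0.5% DMSO) for 72 h. Growth inhibition is measured by CellTiter-Glo luminescence and expressed as GI50.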

[2] = test system: MCF7 cells (ATCC #HTB-22); assay: Cellular growth inhibition assay, MCF7 cells purchased from ATCC; details: Homo sapiens, MCF7, 144 h, Table 8-A; MCF7 cells purchased from ATCC; six days; CellTiter-Glo; read-out: GI50
Outline: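 GI50 values come from a four-parameter fit of CellTiter-Glo 2.0 luminescence after six days of compound exposure at 37° C. Seeding density depended on the source: 225 cells/well for ECACC MCF7, 1,500 for ATCC. Medium was RPMI 1640 with 10% FBS and 0.2 U/ml insulin.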

[3] = test system: T-Rex 293 cells lacking increased expression of estrogen receptor alpha protein; assay: Cellular growth inhibition assay, T-Rex 293 cells, (−) doxycycline; details: T-REx-293, 72 h, Table 7-A; T-Rex 293 cells without doxycycline (lacking increased ERα expression); 72 hours; CellTiter-Glo; read-out: (−) Dox GI50
Outline: as §1

Q: What does the source list for `Cc1sc2c(c1C)C(c1ccc(C3CN(C[C@H]4C[C@H](CN5CC(c6ccc([C@@H]7c8ccc(O)cc8CC[C@@H]7c7ccccc7)cc6)C5)C4)C3)cc1)=N[C@@H](C)c1nnc(C)n1-2` [III-261]?
A: GI50 [1]: < 50 nM; GI50 [2]: 50 to 500 nM; GI50 [3]: 500 to 2500 nM

Q: With `Cc1sc2c(c1C)C(c1ccc(N3CC4(CC(CN5CCN(c6ccc([C@H]7c8ccc(O)cc8CC[C@H]7c7ccc(F)cc7)cc6)CC5)C4)C3)cc1)=N[C@@H](C)c1nnc(C)n1-2` [III-262] as the compound, how does the GI50 [1] read?
A: 50 to 500 nM

Q: What about the GI50 [2] of the same compound?
A: 50 to 500 nM

Q: What about the GI50 [3] of the same compound?
A: 500 to 2500 nM

Q: What does the source list for `Cc1sc2c(c1C)C(c1ccc(N3CC4(CC(CN5CCN(c6ccc([C@@H]7c8ccc(O)cc8CC[C@@H]7c7ccc(F)cc7)cc6)CC5)C4)C3)cc1)=N[C@@H](C)c1nnc(C)n1-2` [III-263]?
A: GI50 [1]: < 50 nM; GI50 [2]: < 50 nM; GI50 [3]: 500 to 2500 nM

Q: Which GI50 [1] does the source give for `Cc1sc2c(c1C)C(c1ccc(N3CCC(O)(CC4CCN(c5ccc([C@@H]6c7ccc(B(O)O)cc7CC[C@@H]6c6ccccc6)cc5)CC4)CC3)cc1)=N[C@@H](C)c1nnc(C)n1-2` [III-264] here?
A: < 50 nM

Q: And the GI50 [2]?
A: < 50 nM

Q: What about the GI50 [3] of the same compound?
A: 500 to 2500 nM

Q: How did the GI50 [1] turn out when `Cc1sc2c(c1C)C(c1ccc(N3CC4(CCC(CN5CCN(c6ccc([C@@H]7c8ccc(O)cc8CC[C@@H]7c7ccccc7)cc6Cl)CC5)CC4)C3)cc1)=N[C@@H](C)c1nnc(C)n1-2` [III-265] was run?
A: 50 to 500 nM

Q: What about the GI50 [2] of the same compound?
A: 50 to 500 nM

Q: What about the GI50 [3] of the same compound?
A: > 2500 nM

Q: For `Cc1sc2c(c1C)C(c1ccc(N3CC4(CCC(O)(CN5CCN(c6cc(F)c([C@@H]7c8ccc(O)cc8CC[C@@H]7c7ccc(F)cc7)c(F)c6)CC5)CC4)C3)cc1)=N[C@@H](C)c1nnc(C)n1-2` [III-266], which GI50 [1] is on record?
A: < 50 nM

Q: What about the GI50 [2] of the same compound?
A: < 50 nM

Q: What about the GI50 [3] of the same compound?
A: 500 to 2500 nM

Q: `Cc1sc2c(c1C)C(c1ccc(N3CC4(CCC(O)(CN5CCC(c6cc(F)c([C@H]7c8ccc(O)cc8CC[C@H]7c7ccc(F)cc7)c(F)c6)CC5)CC4)C3)cc1)=N[C@@H](C)c1nnc(C)n1-2` [III-267] was tested. Which GI50 [1] did it give?
A: 50 to 500 nM

Q: And the GI50 [2]?
A: 50 to 500 nM

Q: What about the GI50 [3] of the same compound?
A: > 2500 nM

Q: Which results are given for `Cc1sc2c(c1C)C(c1ccc(N3CC4(C3)CC(O)(CN3CCN(c5ccc([C@@H]6c7ccc(O)cc7CC[C@@H]6c6ccccc6)cc5)CC3)C4)cc1)=N[C@@H](C)c1nnc(C)n1-2` [III-268]?
A: GI50 [1]: < 50 nM; GI50 [2]: < 50 nM; GI50 [3]: 500 to 2500 nM

Q: How did the GI50 [1] turn out when `Cc1sc2c(c1C)C(c1ccc(N3CCC(O)(CN4CCN(c5ccc([C@H]6c7ccc(O)cc7CC[C@H]6c6ccc(F)c(F)c6)c(F)c5)CC4)CC3)cc1)=N[C@@H](C)c1nnc(C)n1-2` [III-269] was run?
A: 50 to 500 nM

Q: What about the GI50 [2] of the same compound?
A: 50 to 500 nM

Q: And the GI50 [3]?
A: 50 to 500 nM

Q: How did the GI50 [1] turn out when `Cc1sc2c(c1C)C(c1ccc(N3CCC(O)(CN4CCN(c5ccc([C@@H]6c7ccc(O)cc7CC[C@@H]6c6ccc(F)c(F)c6)c(F)c5)CC4)CC3)cc1)=N[C@@H](C)c1nnc(C)n1-2` [III-270] was run?
A: < 50 nM

Q: What about the GI50 [2] of the same compound?
A: 50 to 500 nM

Q: What about the GI50 [3] of the same compound?
A: 500 to 2500 nM

Q: For `Cc1sc2c(c1C)C(c1ccc(N3CCC(O)(CN4CCN(c5ccc([C@H]6c7ccc(O)cc7CC[C@H]6c6cccc(F)c6F)c(F)c5)CC4)CC3)cc1)=N[C@@H](C)c1nnc(C)n1-2` [III-271], which GI50 [1] is on record?
A: 50 to 500 nM

Q: And the GI50 [2]?
A: 50 to 500 nM

Q: What about the GI50 [3] of the same compound?
A: 50 to 500 nM

Q: What does the source list for `Cc1sc2c(c1C)C(c1ccc(N3CCC(O)(CN4CCN(c5ccc([C@@H]6c7ccc(O)cc7CC[C@@H]6c6cccc(F)c6F)c(F)c5)CC4)CC3)cc1)=N[C@@H](C)c1nnc(C)n1-2` [III-272]?
A: GI50 [1]: < 50 nM; GI50 [2]: < 50 nM; GI50 [3]: 500 to 2500 nM

Q: For `Cc1sc2c(c1C)C(c1ccc(N3CCC(O)(CN4CCN(c5ccc([C@H]6c7ccc(O)cc7CC[C@H]6c6cc(F)ccc6F)c(F)c5)CC4)CC3)cc1)=N[C@@H](C)c1nnc(C)n1-2` [III-273], which GI50 [1] is on record?
A: 50 to 500 nM

Q: And the GI50 [2]?
A: 50 to 500 nM

Q: What about the GI50 [3] of the same compound?
A: 50 to 500 nM

Q: What does the source list for `Cc1sc2c(c1C)C(c1ccc(N3CCC(O)(CN4CCN(c5ccc([C@@H]6c7ccc(O)cc7CC[C@@H]6c6cc(F)ccc6F)c(F)c5)CC4)CC3)cc1)=N[C@@H](C)c1nnc(C)n1-2` [III-274]?
A: GI50 [1]: < 50 nM; GI50 [2]: < 50 nM; GI50 [3]: 500 to 2500 nM
